{
  "source": "patent US12083138B2",
  "about": "“Methods to reduce complications of intra-articular steroid” (TAIWAN LIPOSOME CO., LTD., priority 2018, dated 2024)",
  "key": {"cartilage": {"test_system": "cartilage", "test": "Cartilage toluidine blue staining, comparison of TLC599 with TA and ER-TA, Study #75903-18-214", "description": "Proteoglycan loss was evaluated by cationic dyes, toluidine blue, that staining proteoglycans."}, "chondrocyte": {"test_system": "chondrocyte", "settings": "compared among hydrocortisone, triamcinolone and dexamethasone; cited from earlier work"}},
  "data": [
    {"compound": "CC1(C)O[C@@H]2C[C@H]3[C@@H]4CCC5=CC(=O)C=C[C@]5(C)[C@@]4(F)[C@@H](O)C[C@]3(C)[C@]2(C(=O)CO)O1", "note": "[TA, triamcinolone acetonide]", "values": [
      {"measurement": "proteoglycan loss (toluidine blue staining)", "setting": "cartilage; high dose 18.75 mg/knee, single IA injection, vs saline (FIG. 3)", "value": "significantly proteoglycan loss compared to saline"},
      {"measurement": "proteoglycan loss in cartilage", "setting": "cartilage; single dose (FIG. 3)", "value": "moderate proteoglycan loss"}
    ]},
    {"compound": "C[C@@H]1C[C@H]2[C@@H]3CCC4=CC(=O)C=C[C@]4(C)[C@@]3(F)[C@@H](O)C[C@]2(C)[C@@]1(O)C(=O)CO", "note": "[dexamethasone]", "values": [
      {"measurement": "effectiveness to induce chondrocyte apoptosis", "setting": "chondrocyte", "value": "most effective"}
    ]}
  ]
}
